Assay results published in US9557319B2, “Cell-based arrays, methods of making, and methods of using” (University of Florida Research Foundation, Inc., priority 2010, dated 2017).
Read-outs that look alike come from different tables or passages of the source. Marks after values point to notes of the source that are not given here.

Experiments:
HCT116 cells [1] = assay: Apoptosis of HCT116 cells incubated with soluble drugs in 96-well plates; format: cell-based, human; settings: soluble drug, 24 h
Experimental: (§1) FIGS. 12A-12D are a series of graphs illustrating apoptosis and proliferation dose-response curves from HCT116 cells incubated with soluble drugs. FIG. 12A illustrates the percent of apoptotic HCT116 cells incubated 24 h with soluble nutlin-3a. […] Significant differences were determined by ANOVA, {F(5,282)=19.694, p<0.05}, followed by Tukey's post-hoc analysis. FIG. 12C illustrates the percent of non-proliferating HCT116 cells incubated 24 h with soluble nutlin-3a. Significant differences were determined by ANOVA, {F(4,226)=12.643, p<0.05}, followed by Tukey's post-hoc analysis. […] Significant differences were determined by ANOVA, {F(5,252)=102.485, p<0.05}, followed by Tukey's post-hoc analysis. (*: p<0.05 compared to all other conditions, #:p<0.05 from all conditions marked *).
(§2) Results were corroborated using soluble drugs in 96-well plates (FIGS. 12A-D).

CA2 CCSCs = assay: CA2 patient-derived CCSC proliferation on drug-eluting microarray; format: cell-based, human; settings: for proliferation with increasing drug exposure: CA2 cells, single drug; for drug sensitivity (1/D50) / Emax: non-proliferation
Experimental: ALDH^high spheres were generated from tumor cells obtained from patients with colon cancer. Isolated cells were cultured in serum-free media as previously described^14 (reference 14 is hereby incorporated by reference herein with respect to methods for culturing cells in serum-free media). Using these cultures, adherent cell growth was established with 0.1% gelatin (Millipore) coatings on tissue culture plates (TPP, Switzerland) and the cells were serially propagated. For CA1 and CA2 cells, 25,000 cells were tested per array. Cells were seeded in PBS with 0.1% gelatin and treated identically to the microarrays with HCT116.
(§3) Camptothecin-loaded microarrays were stained with Annexin V (BD Pharminigen), fixed in 4% paraformaldehyde, and placed in PBS with Hoechst dye 34580 (Invitrogen, USA) for 30 min. Azide-loaded microarrays were fixed with 4% paraformaldehyde and incubated with PBS containing Hoechst 34580 dye. Finally, nutlin-3a-loaded microarrays were fixed with 4% paraformaldehyde, stained with BrdU (BD Bioscience, San Jose, Calif.), and incubated in PBS containing Hoechst 34580 dye. All arrays were mounted with Fluoro-Gel (Electron Microscope Sciences, Hatfield, Pa.) and imaged using an Axiovert 200M microscope (Carl Zeiss, Oberkochen, Germany). Analysis was performed with Axiovision (Carl Zeiss, Oberkochen, Germany) by quantifying, in each drug-eluting island, the area of fluorescence and reported as relative fluorescence intensity (RFI).
Proliferation values were normalized to control (0 μM drug). Values for concentration-response curves were transformed to non-proliferation by subtracting the normalized value from 100%. Curve fitting analysis was performed to obtain Emax and D50 values using the equation E=E0+(Emax×D)/(D+D50) where E is the effect (either non-proliferation or apoptosis), E0 is the initial value, Emax is the maximum effect, D is the dose, and D50 is the dose at which a 50% maximum effect (Emax) is observed^34. Drug sensitivity values were obtained by taking the inverse of the D50 and multiplying by 100. Those values marked with “#” indicate that the r^2 value of the curve-fit was below 0.65. N/A values are present where negative parameters were obtained.

HCT116 cells [2] = assay: Proliferation of HCT116 cells incubated with soluble drugs in 96-well plates; format: cell-based, human; settings: soluble drug, 24 h
Experimental: as §1, §2

[3] = Drug release from microarrayed drug-loaded EVA islands; format: physicochemical; settings: release from drug-loaded EVA microarray, followed by steady release
Experimental: For drug release studies, polymer formulations were again made as described above. Glass coverslips were weighed prior to printing. Arrays consisting of 900 drug-loaded polymer islands were manufactured and allowed to dry overnight. Samples were weighed and placed in 3 ml of PBS containing 0.1% Tween-80 at 37° C. with gentle agitation. Samples were taken at the specified times and analyzed.

HCT116 cells [4] = assay: HCT116 cell number (Hoechst nuclear stain) on drug-loaded microarray; format: cell-based, human; settings: after 72 h
Text: The following figures (FIGS. 5.1 to 5.4) are micrographs taken from drug-eluting cellular microarrays, manufactured as described herein. The images are taken from individual cellular islands from the same array under various drug-loading conditions over a period of three days. HCT116 cells are nuclear stained with Hoechst for easy visibility. […] The water phase for this experiment was loaded with azide at various concentrations in addition to a control with no drug loaded. Azide is a useful probe reagent, mutagen, and preservative. Azide inhibits cytochrome oxidase by binding irreversibly to the heme cofactor in a process similar to the action of carbon monoxide. As such, it is expected to induce necrosis in cells at physiologically relevant doses.
To establish microarray fidelity, microarrays were manufactured as described above. HCT116 cells were then seeded over microarrays and incubated for 24 or 72 h. Microarrays were fixed in 4% paraformaldehyde and stained with Hoechst 34580 dye.
as §3

[5] = Nutlin dose response, 2nd drug CPT 0 μM, CA2
[6] = Nutlin dose response, 2nd drug CPT 1 μM, CA2
[7] = Nutlin dose response, 2nd drug CPT 10 μM, CA2
[8] = Nutlin dose response, 2nd drug CPT 50 μM, CA2

| Compound | effect on inducing apoptosis of HCT116 cells (HCT116 cells [1]) | proliferation with increasing drug exposure (CA2 CCSCs) | drug sensitivity (1/D50) (CA2 CCSCs; Camptothecin dose response, 2nd drug NUT 0 μM, CA2) | drug sensitivity (1/D50) (CA2 CCSCs; Camptothecin dose response, 2nd drug NUT 1 μM, CA2) | drug sensitivity (1/D50) (CA2 CCSCs; Camptothecin dose response, 2nd drug NUT 125 μM, CA2) | Emax (CA2 CCSCs; Homo sapiens, Camptothecin dose response, 2nd drug NUT 0 μM, CA2, read-out: Emax) | Emax (CA2 CCSCs; Homo sapiens, Camptothecin dose response, 2nd drug NUT 1 μM, CA2, read-out: Emax) | Emax (CA2 CCSCs; Homo sapiens, Camptothecin dose response, 2nd drug NUT 25 μM, CA2, read-out: Emax) | effect on reducing proliferation of HCT116 cells (HCT116 cells [2]) | burst release duration [3] | decrease in Emax of the concentration response curve to nutlin-3a (CA2 CCSCs; 50 μM camptothecin present vs nutlin-3a alone, CA2, not significant (p=0.097)) | Emax (CA2 CCSCs; [5]) | drug sensitivity (1/D50) (CA2 CCSCs; [5]) | Emax (CA2 CCSCs; [6]) | drug sensitivity (1/D50) (CA2 CCSCs; [6]) | Emax (CA2 CCSCs; [7]) | drug sensitivity (1/D50) (CA2 CCSCs; [7]) | Emax (CA2 CCSCs; [8]) | drug sensitivity (1/D50) (CA2 CCSCs; [8]) | HCT116 cell numbers vs drug loading concentration (HCT116 cells [4]) |
| --- | --- | --- | --- | --- | --- | --- | --- | --- | --- | --- | --- | --- | --- | --- | --- | --- | --- | --- | --- | --- |
| CC[C@@]1(O)C(=O)OCc2c1cc1n(c2=O)Cc2cc3ccccc3nc2-1 [Camptothecin] | dose-dependent effect | decreasing proliferation | 133 +/− 5.3* ^ | 1.60 +/− 7.9* ^ | 0.00 +/− 1.01^# | 46.6% | 52.3% | 43.9% | dose-dependent effect | approximately 24 h |  |  |  |  |  |  |  |  |  |  |
| COc1ccc(C2=N[C@@H](c3ccc(Cl)cc3)[C@@H](c3ccc(Cl)cc3)N2C(=O)N2CCNC(=O)C2)c(OC(C)C)c1 [Nutlin-3a] | no effect | decreasing proliferation |  |  |  |  |  |  | dose-dependent effect | approximately 8 h | 53% | 73.3 +/− 9.3* | 171 +/− 49 ^ | 43.8 +/− 11 | 189 +/− 328 ^ | 57.0 +/− 39 | 0.95 +/− 4.6^# | 34.1 +/− 9.3* | 303 +/− 260 ^ | decreased with increasing loading concentrations |
